Test results reported in patent US9833497B2, “Human originated EGF domain proteins and use of the same” (CHENGDU SOURCEBIO LIMITED-LIABILITY COMPANY, priority 2013, dated 2017).

What was measured:
Format in all cases: cell-based
[1] = system: E. coli DH5α; assay: Antibacterial activity: MIC and growth curve against E. coli DH5α in 96-well plate; details: minimal inhibitory concentration against E. coli DH5α; 96-well plate, 5×10^5 CFU/mL, 37° C., judged after 8 h
How it was run: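 Log-phase DH5α (OD600 about 0.5, 37° C, 185 rpm in LB) was pelleted, resuspended in fresh LB and seeded at 5×10^5 CFU/mL with recombinant protein at 50, 25 and 12.5 μg/mL (two-fold series), in triplicate. Plates were shaken at 175 rpm, 37° C, and OD600 was read every 30 min. MIC was the lowest concentration with no growth.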

[2] = system: E. coli BL21; assay: MIC against Gram-negative bacteria: E. coli BL21; details: 5×10^5 CFU/mL
How it was run: (§1)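 Bacteria grown in LB at 37° C to McFarland 0.5, resuspended and seeded at 5×10^5 CFU/mL in 96-well plates. Purified human EGF-domain proteins two-fold serially diluted, triplicate wells; cultured at 37° C, shaking 175 rpm. MIC = lowest protein concentration with no growth.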

[3] = system: Pseudomonas aeruginosa; assay: MIC against Gram-negative bacteria: Pseudomonas aeruginosa; details: 5×10^5 CFU/mL
How it was run: as §1

[4] = system: Klebsiella pneumonia; assay: MIC against Gram-negative bacteria: Klebsiella pneumonia; details: 5×10^5 CFU/mL
How it was run: as §1

[5] = system: Enterobacter cloacae; assay: MIC against Gram-negative bacteria: Enterobacter cloacae; details: 5×10^5 CFU/mL
How it was run: as §1

[6] = system: Aeromonas hydrophila; assay: MIC against Gram-negative bacteria: Aeromonas hydrophila; details: 5×10^5 CFU/mL
How it was run: as §1

[7] = system: Citrobacter diversus; assay: MIC against Gram-negative bacteria: Citrobacter diversus; details: 5×10^5 CFU/mL
How it was run: as §1

[8] = system: Moraxella catarrhalis; assay: MIC against Gram-negative bacteria: Moraxella catarrhalis; details: 5×10^5 CFU/mL
How it was run: as §1

[9] = system: Proteus mirabilis; assay: MIC against Gram-negative bacteria: Proteus mirabilis; details: 5×10^5 CFU/mL
How it was run: as §1

[10] = system: Proteus vulgaris; assay: MIC against Gram-negative bacteria: Proteus vulgaris; details: 5×10^5 CFU/mL
How it was run: as §1

[11] = system: Serratia marcescens; assay: MIC against Gram-negative bacteria: Serratia marcescens; details: 5×10^5 CFU/mL
How it was run: as §1

[12] = 10 h cultivation at 37° C., two-fold serial dilution
[13] = Pseudomonas aeruginosa, 96-well plate, 37° C., 10 h
[14] = Klebsiella pneumonia, 96-well plate, 37° C., 10 h
[15] = Enterobacter cloacae, 96-well plate, 37° C., 10 h
[16] = Aeromonas hydrophila, 96-well plate, 37° C., 10 h
[17] = Citrobacter diversus, 96-well plate, 37° C., 10 h
[18] = Moraxella catarrhalis, 96-well plate, 37° C., 10 h
[19] = Proteus mirabilis, 96-well plate, 37° C., 10 h
[20] = Proteus vulgaris, 96-well plate, 37° C., 10 h
[21] = Serratia marcescens, 96-well plate, 37° C., 10 h

Substance	MIC [1] [µg/mL]	MIC against E. coli BL21 ([2]; 96-well plate, 37° C., 10 h) [µg/mL]	MIC against P. aeruginosa [3, 13] [µg/mL]	MIC against K. pneumonia [4, 14] [µg/mL]	MIC against E. cloacae [5, 15] [µg/mL]	MIC against A. hydrophila [6, 16] [µg/mL]	MIC against C. diversus [7, 17] [µg/mL]	MIC against M. catarrhalis [8, 18] [µg/mL]	MIC against P. mirabilis [9, 19] [µg/mL]	MIC against P. vulgaris [10, 20] [µg/mL]	MIC against S. marcescens [11, 21] [µg/mL]	also measured
PRT245 (DIDECASGKVICPYNRRCVNTFGSYYCKCHIGFELQYIS; listed as Homo sapiens)	12.5	–	–	–	–	–	–	–	–	–	–	MIC (μg/mL) E. coli BL21 ([2]; 10 h cultivation at 37° C.): 50 µg/mL; MIC (μg/mL) P. aeruginosa ([3]; P. aeruginosa, 10 h cultivation at 37° C.): 12.5 µg/mL; MIC (μg/mL) K. pneumonia ([4]; K. pneumonia, 10 h cultivation at 37° C.): 12.5 µg/mL; MIC (μg/mL) E. cloacae ([5]; E. cloacae, 10 h cultivation at 37° C.): 12.5 µg/mL; MIC (μg/mL) A. hydrophila ([6]; A. hydrophila, 10 h cultivation at 37° C.): 12.5 µg/mL; MIC (μg/mL) C. diversus ([7]; C. diversus, 10 h cultivation at 37° C.): 25 µg/mL; MIC (μg/mL) M. catarrhalis ([8]; M. catarrhalis, 10 h cultivation at 37° C.): 12.5 µg/mL; MIC (μg/mL) P. mirabilis ([9]; P. mirabilis, 10 h cultivation at 37° C.): 25 µg/mL; MIC (μg/mL) P. vulgaris ([10]; P. vulgaris, 10 h cultivation at 37° C.): 12.5 µg/mL; MIC (μg/mL) S. marcescens ([11]; S. marcescens, 10 h cultivation at 37° C.): 25 µg/mL
PRT1057 (DIDECEMGVPVCPPASSKCINTEGGYVCRCSEGYQGDGIHCL; listed as Homo sapiens)	25	–	–	–	–	–	–	–	–	–	–	MIC E. coli BL21 [2, 12]: 50 µg/mL; MIC P. aeruginosa [3, 12]: 25 µg/mL; MIC K. pneumonia [4, 12]: 12.5 µg/mL; MIC E. cloacae [5, 12]: 25 µg/mL; MIC A. hydrophila [6, 12]: 50 µg/mL; MIC C. diversus [7, 12]: 25 µg/mL; MIC M. catarrhalis [8, 12]: 12.5 µg/mL; MIC P. mirabilis [9, 12]: 25 µg/mL; MIC P. vulgaris [10, 12]: 50 µg/mL; MIC S. marcescens [11, 12]: 25 µg/mL
PRT1237 (LGPGCLDNCRGHGDCLREQCICDPGYSGPNCY; listed as Homo sapiens)	12.5	12.5	25	12.5	12.5	12.5	25	50	25	12.5	50	–
PRT1241 (WSSTCRRPCQCNTAAARCEQATGACVCKPGWWGRRCS; listed as Homo sapiens)	50	25	12.5	50	12.5	50	12.5	25	50	25	12.5	–
PRT74 (CDCFPHGSHSRTCDMATGQCACKPGVIGRQCNRCDNPFAEVTTLGCEV; listed as Homo sapiens)	50	–	–	–	–	–	–	–	–	–	–	MIC (μg/mL) E. coli BL21 ([2]; 96-well plate, 37° C., 10 h): 12.5 µg/mL; MIC (μg/mL) P. aeruginosa [3, 13]: 25 µg/mL; MIC (μg/mL) K. pneumonia [4, 14]: 50 µg/mL; MIC (μg/mL) E. cloacae [5, 15]: 25 µg/mL; MIC (μg/mL) A. hydrophila [6, 16]: 12.5 µg/mL; MIC (μg/mL) C. diversus [7, 17]: 12.5 µg/mL; MIC (μg/mL) M. catarrhalis [8, 18]: 12.5 µg/mL; MIC (μg/mL) P. mirabilis [9, 19]: 12.5 µg/mL; MIC (μg/mL) P. vulgaris [10, 20]: 12.5 µg/mL; MIC (μg/mL) S. marcescens [11, 21]: 25 µg/mL
PRT1281 (DLCLSSPCQNQGTCHNDPLEVYRCACPSGYKGRDCE; listed as Homo sapiens)	50	12.5	25	50	25	12.5	50	12.5	50	12.5	50	–
